Results: patent publication US20220281848A1, “PYRAZOLE-SUBSTITUTED PYRROLIDINONES AS HERBICIDES” (FMC Corporation, priority 2019, published 2022)

System: plants
Assay: Test D post-emergence, other plants of Tables D2 and D4
Type: in vivo
Conditions: for ALOMY damage rating (100=total damage to plant; 0=no damage to plant) / AVEFA damage rating (100=total damage to plant; 0=no damage to plant) / BEAVA damage rating (100=total damage to plant; 0=no damage to plant) / BROTE damage rating (100=total damage to plant; 0=no damage to plant) / BRSNN damage rating (100=total damage to plant; 0=no damage to plant) / CHEAL damage rating (100=total damage to plant; 0=no damage to plant) / GALAP damage rating (100=total damage to plant; 0=no damage to plant) / HORVW damage rating (100=total damage to plant; 0=no damage to plant) / KCHSC damage rating (100=total damage to plant; 0=no damage to plant) / LOLPE damage rating (100=total damage to plant; 0=no damage to plant) / POAAN damage rating (100=total damage to plant; 0=no damage to plant) / POLCO damage rating (100=total damage to plant; 0=no damage to plant) / SINAR damage rating (100=total damage to plant; 0=no damage to plant) / STEME damage rating (100=total damage to plant; 0=no damage to plant) / VERPE damage rating (100=total damage to plant; 0=no damage to plant): "Cereals" Postemergent, evaluated after 15 d
Outline: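 Damage was rated visually from 0 (none) to 100 (total), at 20 DAA for pre-emergence and 15 d for post-emergence. Plants grew from safener-treated seed in a glasshouse at 24/18° C. or 20/16° C. day/night, 65% humidity, watered twice daily.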

Question: `CN1CC(c2cc(C(F)(F)F)n(C)n2)C(C(=O)Nc2cccc(F)n2)C1=O` (racemic) [Compound 24] was tested. Which “ALOMY damage rating (100=total damage to plant; 0=no damage to plant)” value (Rates 130) did it give?
Answer: 0

Question: And the “ALOMY damage rating (100=total damage to plant; 0=no damage to plant)” value (Rates 250)?
Answer: 0

Question: And the “ALOMY damage rating (100=total damage to plant; 0=no damage to plant)” value (Rates 500)?
Answer: 0

Question: And the “AVEFA damage rating (100=total damage to plant; 0=no damage to plant)” value (Rates 130)?
Answer: 0

Question: And the “AVEFA damage rating (100=total damage to plant; 0=no damage to plant)” value (Rates 250)?
Answer: 0

Question: And the “AVEFA damage rating (100=total damage to plant; 0=no damage to plant)” value (Rates 500)?
Answer: 0

Question: And the “BEAVA damage rating (100=total damage to plant; 0=no damage to plant)” value (Rates 130)?
Answer: 0

Question: What about the “BEAVA damage rating (100=total damage to plant; 0=no damage to plant)” value (Rates 250) of the same molecule?
Answer: 0

Question: What about the “BEAVA damage rating (100=total damage to plant; 0=no damage to plant)” value (Rates 500) of the same molecule?
Answer: 0

Question: And the “BROTE damage rating (100=total damage to plant; 0=no damage to plant)” value (Rates 130)?
Answer: 0

Question: And the “BROTE damage rating (100=total damage to plant; 0=no damage to plant)” value (Rates 250)?
Answer: 0

Question: What about the “BROTE damage rating (100=total damage to plant; 0=no damage to plant)” value (Rates 500) of the same molecule?
Answer: 0

Question: What about the “BRSNN damage rating (100=total damage to plant; 0=no damage to plant)” value (Rates 130) of the same molecule?
Answer: 0

Question: And the “BRSNN damage rating (100=total damage to plant; 0=no damage to plant)” value (Rates 250)?
Answer: 0

Question: And the “BRSNN damage rating (100=total damage to plant; 0=no damage to plant)” value (Rates 500)?
Answer: 0

Question: And the “CHEAL damage rating (100=total damage to plant; 0=no damage to plant)” value (Rates 130)?
Answer: 0

Question: What about the “CHEAL damage rating (100=total damage to plant; 0=no damage to plant)” value (Rates 250) of the same molecule?
Answer: 10

Question: And the “CHEAL damage rating (100=total damage to plant; 0=no damage to plant)” value (Rates 500)?
Answer: 40

Question: And the “GALAP damage rating (100=total damage to plant; 0=no damage to plant)” value (Rates 130)?
Answer: 0

Question: What about the “GALAP damage rating (100=total damage to plant; 0=no damage to plant)” value (Rates 250) of the same molecule?
Answer: 0

Question: What about the “GALAP damage rating (100=total damage to plant; 0=no damage to plant)” value (Rates 500) of the same molecule?
Answer: 20

Question: And the “HORVW damage rating (100=total damage to plant; 0=no damage to plant)” value (Rates 130)?
Answer: 0

Question: And the “HORVW damage rating (100=total damage to plant; 0=no damage to plant)” value (Rates 250)?
Answer: 0

Question: What about the “HORVW damage rating (100=total damage to plant; 0=no damage to plant)” value (Rates 500) of the same molecule?
Answer: 0

Question: What about the “KCHSC damage rating (100=total damage to plant; 0=no damage to plant)” value (Rates 130) of the same molecule?
Answer: 0

Question: What about the “KCHSC damage rating (100=total damage to plant; 0=no damage to plant)” value (Rates 250) of the same molecule?
Answer: 0

Question: And the “KCHSC damage rating (100=total damage to plant; 0=no damage to plant)” value (Rates 500)?
Answer: 0

Question: And the “LOLPE damage rating (100=total damage to plant; 0=no damage to plant)” value (Rates 130)?
Answer: 0

Question: What about the “LOLPE damage rating (100=total damage to plant; 0=no damage to plant)” value (Rates 250) of the same molecule?
Answer: 0

Question: And the “LOLPE damage rating (100=total damage to plant; 0=no damage to plant)” value (Rates 500)?
Answer: 0

Question: And the “POAAN damage rating (100=total damage to plant; 0=no damage to plant)” value (Rates 130)?
Answer: 0

Question: What about the “POAAN damage rating (100=total damage to plant; 0=no damage to plant)” value (Rates 250) of the same molecule?
Answer: 0

Question: What about the “POAAN damage rating (100=total damage to plant; 0=no damage to plant)” value (Rates 500) of the same molecule?
Answer: 0

Question: And the “POLCO damage rating (100=total damage to plant; 0=no damage to plant)” value (Rates 130)?
Answer: 0

Question: And the “POLCO damage rating (100=total damage to plant; 0=no damage to plant)” value (Rates 250)?
Answer: 0

Question: And the “POLCO damage rating (100=total damage to plant; 0=no damage to plant)” value (Rates 500)?
Answer: 0

Question: What about the “SINAR damage rating (100=total damage to plant; 0=no damage to plant)” value (Rates 130) of the same molecule?
Answer: 0

Question: What about the “SINAR damage rating (100=total damage to plant; 0=no damage to plant)” value (Rates 250) of the same molecule?
Answer: 0

Question: And the “SINAR damage rating (100=total damage to plant; 0=no damage to plant)” value (Rates 500)?
Answer: 0

Question: What about the “STEME damage rating (100=total damage to plant; 0=no damage to plant)” value (Rates 130) of the same molecule?
Answer: 0

Question: And the “STEME damage rating (100=total damage to plant; 0=no damage to plant)” value (Rates 250)?
Answer: 0

Question: And the “STEME damage rating (100=total damage to plant; 0=no damage to plant)” value (Rates 500)?
Answer: 0

Question: What about the “VERPE damage rating (100=total damage to plant; 0=no damage to plant)” value (Rates 130) of the same molecule?
Answer: 0

Question: What about the “VERPE damage rating (100=total damage to plant; 0=no damage to plant)” value (Rates 250) of the same molecule?
Answer: 0

Question: And the “VERPE damage rating (100=total damage to plant; 0=no damage to plant)” value (Rates 500)?
Answer: 20

Question: What about the “damage to plant (100=total damage to plant; 0=no damage to plant), ABUTH” value (post-emergence, ABUTH, rate 130, evaluated after 15 d) of the same molecule?
Answer: 0
